Results reported in US9382517B2, “HCV full-length infectious cell culture systems and applications thereof” (priority 2012, dated 2016).

What was measured:
J6 full-length virus = experiment: HCV antiviral treatment of Huh7.5 cells infected with J6 full-length virus (fourth passage J6_LSGΔ33U); format: cell-based, hepatitis C virus (genotype 2a); conditions: for inhibition of full-length J6 culture viruses: treatment 24 and 48 hours post-infection, HCV positive cells counted 72 hours post-infection
Method: (§1) Naïve Huh7.5 cells were infected with indicated viruses, and antiviral treatments were carried out at 24 and 48 hours post-infection. The HCV positive cells were counted 72 hours post-infection as previously described. Fourth passage J6 full-length J6_LSGΔ33U virus (Table 3) was used for treatment. Treatment experiments with recombinants J6^5′UTR-NS2/JFH1, J6^Core-NS2,NS3 protease, NS4A/JFH1 and J6^Core-NS2,NS5A/JFH1 were included for comparison. (A) Treatment with protease inhibitors (boceprevir and TMC435) and the NS5A inhibitor daclatasvir (BMS-790052). (B) Treatment with NS5B inhibitors. (C) Median effective concentrations (EC50) of the used inhibitors against the indicated viruses. *, range of two experiments; experiments with the lowest EC50 shown in A or B. In A and B, values are means of triplicate determinations.
(§2) HCV antiviral treatment. HCV antivirals were purchased from Acme Bioscience (Palo Alto, Calif.) and dissolved in dimethyl sulfoxide. Huh7.5 cells grown in poly-D-lysine-coated 96-well plates (Nunc) were infected with HCV and treated with antivirals 24 and 48 hours post-infection as previously described. Single HCV core positive cells were determined by immunostaining with C7-50 (Enzo Life Sciences) 72 hours post-infection.

TN full-length virus = experiment: HCV antiviral treatment of Huh7.5 cells infected with TN full-length virus (first passage TN_LSGF/A1226G/Q1773H); format: cell-based, hepatitis C virus (genotype 1a); conditions: for inhibition of TN full-length virus: DAAs 24 hours post-infection, interferon-α2b 24 and 48 hours, HCV positive cells 72 hours post-infection
Method: (§3) Naïve Huh7.5 cells were infected with first passage virus stock of TN full-length recombinant TN_LSGF/A1226G/Q1773H; the ORF sequence of this virus stock is shown in FIGS. 16 and 17. A J6/JFH1 virus stock was treated in parallel. Antivirals were administered 24 hours post infection at the indicated doses; interferon-α2b was also administered 48 hours post infection. The number of HCV positive cells per well was determined 72 hours post infection. (A) Dose response curves for treatments with lead compound protease inhibitors telaprevir (VX-950), boceprevir (SCH503034), and simeprevir (TMC435), NS5A inhibitor daclatasvir (BMS-790052), and NS5B inhibitor PSI-7977, as well as interferon-α2b. Values are means of triplicate determinations with SEM. (B) Median effective concentrations (EC50) of the used inhibitors against the indicated viruses. Values for EC50 and 95% confidence interval are shown.
(§4) HCV antiviral treatment. HCV DAAs were purchased from Acme Bioscience (Palo Alto, Calif.) and dissolved in dimethyl sulfoxide. Inerferon-α2b was purchased from Schering-Plough (Kenilworth, N.J.).
Briefly, Huh7.5 cells grown in poly-D-lysine-coated 96-well plates (Nunc) were infected with HCV and treated with DAAs 24 hours post-infection. Treatment with interferon-α2b was performed at 24 and 48 hours post-infection. Single HCV Core and NS5A positive cells were determined 72 hours post-infection by immunostaining with combination of C7-50 (Enzo Life Sciences) and 9E10 antibodies. Dose response curves were fitted and EC50 values with 95% confidence interval were calculated in GraphPad Prim 4 (Graphpad).

Huh7.5 cells = experiment: Cytotoxicity assay, non-cytotoxic dose range (Example 3); format: cell-based, human; conditions: at the doses used in this study
Method: A cytotoxicity assay was performed for PSI-7977, as we had not used this drug previously. The non-cytotoxic dose range for telaprevir, boceprevir, simeprevir, daclatasvir, and interferon-α2b was determined.

J6/JFH1 = experiment: HCV antiviral treatment of Huh7.5 cells infected with J6/JFH1 virus stock; format: cell-based, hepatitis C virus (genotype 2a); conditions: stated for HCV of genotypes 1 and 2
Method: as §3, §4
Briefly, Huh7.5 cells grown in poly-D-lysine-coated 96-well plates (Nunc) were infected with HCV and treated with DAAs 24 hours post-infection. […] Single HCV Core and NS5A positive cells were determined 72 hours post-infection by immunostaining with combination of C7-50 (Enzo Life Sciences) and 9E10 antibodies. […]

[1] = test system: J6/JFH1 with J6-specific NS3/NS4A protease; experiment: HCV antiviral treatment of Huh7.5 cells infected with J6/JFH1 with J6-specific NS3/NS4A protease; format: cell-based, hepatitis C virus (genotype 2a); conditions: J6/JFH1 with J6-specific NS3/NS4A protease compared to J6^5′UTR-NS2/JFH1
Method: as §1, §2

[2] = test system: J6/JFH1-based recombinant with TN NS5A; experiment: HCV antiviral treatment, J6/JFH1-based recombinant with TN NS5A; format: cell-based; conditions: Hepatitis C virus, read-out: Median effective concentration (EC50)
[3] = J6 virus compared to J6^5′UTR-NS2/JFH1

Molecule	fold lower EC50 compared to J6^5′UTR-NS2/JFH1 (J6 full-length virus; [3])	inhibition of full-length J6 culture viruses (J6 full-length virus)	inhibition of TN full-length virus (TN full-length virus)	cytotoxic effects (Huh7.5 cells)	other results
CNC(=O)c1c(-c2ccc(F)cc2)oc2cc(N(CCO)S(C)(=O)=O)c(C3CC3)cc12 [HCV-796]	~2 fold	inhibited	–	–	–
CC(C)[C@H](N)C(=O)O[C@@H]1[C@@H](CO)O[C@@H](n2ccc(N)nc2=O)[C@]1(C)O [NM283]	~6 fold	inhibited	–	–	–
C[C@@]1(F)[C@H](O)[C@@H](CO)O[C@H]1n1ccc(N)nc1=O [PSI-6130]	around 4 fold	inhibited	–	–	–
CC(C)OC(=O)[C@H](C)N[P@](=O)(OC[C@H]1O[C@@H](n2ccc(=O)[nH]c2=O)[C@](C)(F)[C@@H]1O)Oc1ccccc1 [PSI-7977]	–	–	dose-dependently inhibited	No cytotoxic effects	inhibition of HCV of genotype 2 (J6/JFH1) (J6/JFH1): efficiently inhibit
COc1ccc2c(O[C@@H]3C[C@H]4C(=O)N[C@]5(C(=O)NS(=O)(=O)C6CC6)C[C@H]5/C=C\CCCCN(C)C(=O)[C@@H]4C3)cc(-c3nc(C(C)C)cs3)nc2c1C [TMC435, simeprevir]	–	inhibited	dose-dependently inhibited	No cytotoxic effects	fold higher EC50 than that found for J6^5′UTR-NS2/JFH1 (J6 full-length virus; [3]): 2-3 fold; fold higher EC50 than that found for J6^5′UTR-NS2/JFH1 [1]: 2-3 fold
CC(C)(C)NC(=O)N[C@H](C(=O)N1C[C@H]2[C@@H]([C@H]1C(=O)NC(CC1CCC1)C(=O)C(N)=O)C2(C)C)C(C)(C)C (stereo partly drawn) [boceprevir]	–	–	–	No cytotoxic effects	–
COC(=O)N[C@H](C(=O)N1CCC[C@H]1c1nc(-c2ccc(-c3ccc(-c4c[nH]c([C@@H]5CCCN5C(=O)[C@@H](NC(=O)OC)C(C)C)n4)cc3)cc2)c[nH]1)C(C)C [daclatasvir]	–	–	–	No cytotoxic effects	EC50 (TN full-length virus; Hepatitis C virus, TN full-length virus, 72 hours post-infection, read-out: Median effective concentration (EC50)): 0.032 nM; EC50 [2]: 0.042 nM
CCC[C@H](NC(=O)[C@@H]1[C@H]2CCC[C@H]2CN1C(=O)[C@@H](NC(=O)[C@@H](NC(=O)c1cnccn1)C1CCCCC1)C(C)(C)C)C(=O)C(=O)NC1CC1 [telaprevir]	–	–	–	No cytotoxic effects	–
interferon-α2b	–	–	dose-dependently inhibited	No cytotoxic effects	–
